Data published in patent US11103493B2, “Substituted pyridinyl compounds as indoleamine 2,3-dioxygenase (IDO) inhibitors” (Merck Sharp & Dohme Corp., priority 2017, dated 2021).

Tests used:
IDO1 [1] = biological target: T1, IDO1 (Homo sapiens, UniProt P14902); assay: IDO1 Cellular Assay in HeLa Cells Stimulated with IFNγ; type: cell-based; settings: IFNγ 100 ng/mL, 300 uM L-tryptophan, about 48 hours incubation, fluorescence readout, read-out: IDO1 HeLa Cell Assay, IC50
Protocol: IDO1 Cellular Assay in HeLa Cells Stimulated with IFNγ
HeLa cells were cultured in complete HeLa culture medium (90% EMEM, 10% heat-inactivated fetal bovine serum) and expanded to about 1×10^9 cells. The cells were then collected and frozen down at 1×10^7 cells/vial in 1 mL frozen medium (90% complete HeLa culture medium, 10% DMSO).
Compounds to be tested were serially diluted in ten 3-fold steps in DMSO starting from 10 mM DMSO stocks in Echo low volume plate(s).
Frozen HeLa cells were thawed and transferred into HeLa assay medium (99% complete HeLa culture medium, 1% Pen/Strep) with 20 mL medium/vial of cells. The cells were spun down at 250 g in a table top centrifuge for 5 min and suspended in same volume of HeLa assay medium. The cells were then counted and adjusted to a density of 2×10^5 cells/mL in HeLa assay medium. Sterile L-tryptophan were added to the cells with final concentration of 300 uM L-tryptophan. A small aliquot (2 mL/plate) of HeLa cells were set aside and were not treated with IFNγ, to serve as the Max-E control.
HeLa cells with and without IFNγ were dispensed to the respective wells of 384-well assay plates containing the compounds. The plates were incubated for about 48 hours at a 37° C., 5% CO2 incubator. Afterwards, 12 μL of 0.5 M methyl isonipecotate in dimethyl sulfoxide were added into each well and the plates were sealed and incubated at 37° C. without CO2 overnight. The plates were centrifuged for 1 min at 200×g. The resulting fluorescence was measured in a Spectramax plate reader (Molecular Devices) with a 400 nm excitation filter and a 510 nm emission filter.
Potencies were calculated by […] least squares fit to the four parameter logistic IC50 equation.

IDO1 [2] = biological target: T1, IDO1; assay: IDO1 Human Whole Blood Assay; type: cell-based; settings: LPS and IFNγ 100 ng/mL, 18 h, kynurenine by LC/MS/MS
Protocol: IDO1 Human Whole Blood Assay
Compounds to be tested were serially diluted in ten 3-fold steps in DMSO starting from 10 mM. 3 μL of compound dilutions or DMSO alone were then dispensed from the dilution plate into a polypropylene 96-well assay plate containing 97 μL of RPMI medium using an Echo 555 acoustic liquid handler (Labcyte). LPS and IFNγ was prepared in RPMI medium to a 10× of final conc. (1000 ng/mL), final concentration is 100 ng/mL.
Human whole blood was drawn in sodium heparin coated tubes from healthy internal donors. 240 μL of blood was transferred to each of the wells of a v-bottom 96 well plate. 30 μL of compound was transferred from intermediate dilution plate, and incubated for 15 min. 30 μL from stimulants was then transferred to blood and mixed thoroughly. Plate was covered with breathable membrane and incubated at 37° C. for overnight (18 h).
On day 2, isotope labeled standard solutions of kunurenine and tryptophan was made in water at 10× concentration and 30 μL was added to the blood at […] concentration. The assay plates were centrifuged at 300×G for 10 min with no brake to separate plasma from red blood cells. 60 μL of plasma samples was removed without disturbing red blood cells. Plasma was diluted with RPMI in 1:1 ratio and proteins were precipitated out with two volumes of Acetonitrile. The plates were centrifuged at 4000×G for 60 min. 20 μL of supernatant was carefully transferred to a 384 well plate containing 40 μL of 0.1% formic acid in water and analyzed by LC/MS/MS.
LC/MS/MS analyses were performed using Thermo Fisher's LX4-TSQ Quantum Ultra system. This system consists of four Agilent binary high-performance liquid chromatography (HPLC) pumps and a TSQ Quantum Ultra triple quadrupole MS/MS instrument. For each sample, 5 μL were injected onto an Atlantis T3 column (2.1 mm×150 mm, 3 μm particle size) from Waters. The mobile phase gradient pumped at 0.8 mL/min was used to elute the analytes from the column at 25° C. The elution started at 0% B increasing linearly to 25% B at 6.5 min, holding at 25% for 1 min, re-equilibrating to 10 min. Mobile phase A consisted of 0.1% formic acid in water. Mobile phase B consisted of 0.1% of formic acid in acetonitrile. Data was acquired in positive mode using a HESI interface. The operational parameters for the TSQ Quantum Ultra instrument were a spray voltage of 4000 V, capillary temperature of 380° C., vaporizer temperature 400° C., shealth gas 60 arbitrary units, Aux gas 20 arbitrary units, tube lens 85 and collision gas 1.2 mTorr. SRM chromatograms of kynurenine (QI: 209.2>Q3:94.0) and internal standard (QI: 215.3>Q3:98.2) were collected for 90 sec. The peak area was integrated by Xcalibur Quan software. The ratios between the kynurenine generated in the reaction and 2D6-Kynurenine spiked-in internal standard were used to generate percentage inhibition and IC50 values. Compounds were titrated and IC50's were calculated by 4 parameter sigmoidal curve fitting formula.

T1 sequence (P14902 whole entry): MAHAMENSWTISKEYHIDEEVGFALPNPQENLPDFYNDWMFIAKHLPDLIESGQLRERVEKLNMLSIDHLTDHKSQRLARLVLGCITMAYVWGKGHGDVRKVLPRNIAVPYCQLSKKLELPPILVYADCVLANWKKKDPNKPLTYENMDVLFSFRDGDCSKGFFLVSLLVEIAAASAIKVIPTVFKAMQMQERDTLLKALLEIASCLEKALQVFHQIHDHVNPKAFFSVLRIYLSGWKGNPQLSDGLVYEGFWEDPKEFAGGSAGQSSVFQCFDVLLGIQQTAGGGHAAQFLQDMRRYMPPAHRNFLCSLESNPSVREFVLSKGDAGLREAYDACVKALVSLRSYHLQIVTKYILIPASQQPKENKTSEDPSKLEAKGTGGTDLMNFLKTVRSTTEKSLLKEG

| Structure (SMILES) | IC50 (IDO1 [1]) | IC50 (IDO1 [2]) |
| --- | --- | --- |
| O=C(Nc1ccc(C2(c3nc4cc(F)cc(F)c4[nH]3)CCC2)cn1)c1cccc(Cl)c1 [Ex. 17, 3-chloro-N-{5-[1-(5,7-difluoro-1H-benzimidazol-2-yl)cyclobutyl]pyridin-2-yl}benzamide] | 0.0049 µM | 0.829 µM |
| O=C(Nc1ccc(C2(c3nc4cc(-n5cnnn5)ccc4[nH]3)CCC2)cn1)c1cccc(Cl)c1 [Ex. 20, 3-chloro-N-(5-{1-[5-(1H-tetrazol-1-yl)-1H-benzimidazol-2-yl]cyclobutyl}pyridin-2-yl)benzamide] | 0.262 µM | – |
| O=C(O)Cc1cccc2nc(C3(c4ccc(NC(=O)c5cccc(Cl)c5)nc4)CCC3)[nH]c12 [Ex. 33, 2-(2-(1-(6-(3-Chlorobenzamido)pyridin-3-yl)cyclobutyl)-1H-benzo[d]imidazol-7-yl)acetic acid] | 0.0207 µM | 1.6 µM |
| O=C(Nc1ccc(C2(c3nc4cccc(CO)c4[nH]3)CCC2)cn1)c1cccc(Cl)c1 [Ex. 24, 3-chloro-N-(5-{1-[7-(hydroxymethyl)-1H-benzimidazol-2-yl]cyclobutyl}pyridin-2-yl)benzamide] | 0.00665 µM | 0.826 µM |
| O=C1COc2cc3[nH]c(C4(c5ccc(NC(=O)c6cccc(Cl)c6)nc5)CCC4)nc3cc2N1 [Ex. 18, 3-chloro-N-{5-[1-(7-oxo-3,6,7,8-tetrahydroimidazo[4,5-g][1,4]benzoxazin-2-yl)cyclobutyl]pyridin-2-yl}benzamide] | 0.132 µM | – |
| Cc1cccc2nc(C3(c4ccc(NC(=O)c5cccc(Cl)c5)nc4)CCC3)[nH]c12 [Ex. 11, 3-chloro-N-{5-[1-(7-methyl-1H-benzimidazol-2-yl)cyclobutyl]pyridin-2-yl}benzamide] | 0.0102 µM | – |
| N#Cc1cnc2nc(C3(c4ccc(NC(=O)c5cncc(F)c5)nc4)CCC3)[nH]c2c1 [Ex. 4, N-(5-(1-(6-cyano-1H-imidazo[4,5-b]pyridin-2-yl)cyclobutyl)pyridin-2-yl)-5-fluoronicotinamide] | 0.144 µM | – |
| COc1cccc2[nH]c(C3(c4ccc(NC(=O)c5cccc(Cl)c5)nc4)CCC3)nc12 [Ex. 15, 3-chloro-N-{5-[1-(4-methoxy-1H-benzimidazol-2-yl)cyclobutyl]pyridin-2-yl}benzamide] | 0.0101 µM | – |
| N#Cc1cnc2[nH]c(C3(c4ccc(NC(=O)c5cccc(Cl)c5)nc4)CCC3)cc2c1 [Ex. 6, 3-Chloro-N-(5-(1-(5-cyano-1H-pyrrolo[2,3-b]pyridin-2-yl)cyclobutyl)pyridin-2-yl)benzamide] | 0.633 µM | – |
| COc1ccc2nc(C3(c4ccc(NC(=O)c5cccc(Cl)c5)nc4)CCC3)[nH]c2c1 [Ex. 14, 3-chloro-N-{5-[1-(6-methoxy-1H-benzimidazol-2-yl)cyclobutyl]pyridin-2-yl}benzamide] | 0.00562 µM | – |
| N#Cc1cccc(C(=O)Nc2ccc(C3(c4nc5cc(C#N)cnc5[nH]4)CCC3)cn2)c1 [Ex. 29, 3-cyano-N-{5-[1-(6-cyano-3H-imidazo[4,5-b]pyridin-2-yl)cyclobutyl]pyridin-2-yl}benzamide] | 0.046 µM | – |
| O=C(Nc1ccc(C2(c3nc4ccc(OC(F)(F)F)cc4[nH]3)CCC2)cn1)c1cccc(Cl)c1 [Ex. 22, 3-chloro-N-(5-{1-[6-(trifluoromethoxy)-1H-benzimidazol-2-yl]cyclobutyl}pyridin-2-yl)benzamide] | 0.0141 µM | – |
| CC(C)(C)c1ccc2nc(C3(c4ccc(NC(=O)c5cccc(Cl)c5)nc4)CCC3)[nH]c2c1 [Ex. 12, N-{5-[1-(6-tert-butyl-1H-benzimidazol-2-yl)cyclobutyl]pyridin-2-yl}-3-chlorobenzamide] | 0.433 µM | – |
| O=C(Nc1ccc(C2(c3nc4ccccc4n3CCO)CCC2)cn1)c1cccc(Cl)c1 [Ex. 31, 3-Chloro-N-(5-(1-(1-(2-hydroxyethyl)-1H-benzo[d]imidazol-2-yl)cyclobutyl)pyridin-2-yl)benzamide] | 0.2 µM | – |
| Cc1cc2nc(C3(c4ccc(NC(=O)c5cccc(Cl)c5)nc4)CCC3)[nH]c2cc1C [Ex. 26, 3-chloro-N-{5-[1-(5,6-dimethyl-1H-benzimidazol-2-yl)cyclobutyl]pyridin-2-yl}benzamide] | 0.00966 µM | – |

Other lines, results leading:

| IC50 (IDO1 [1]) | IC50 (IDO1 [2]) | Structure (SMILES) |
| --- | --- | --- |
| 5.91 µM | – | N#Cc1cccc(C(=O)Nc2ccc(C(O)c3nc4cc(C(F)(F)F)cnc4[nH]3)cn2)c1 (centres unmarked) [Ex. 42, 3-Cyano-N-(5-(hydroxy(6-(trifluoromethyl)-3H-imidazo[4,5-b]pyridin-2-yl)methyl)pyridin-2-yl)benzamide] |
| 0.263 µM | – | CO[C@H](c1ccc(NC(=O)c2cccc(C#N)c2)nc1)c1nc2cc(C(F)(F)F)cnc2[nH]1 [Ex. 41, (R)-3-cyano-N-(5-(methoxy(6-(trifluoromethyl)-3H-imidazo[4,5-b]pyridin-2-yl)methyl)pyridin-2-yl)benzamide] |
| 0.0948 µM | – | CO[C@@H](c1ccc(NC(=O)c2cccc(C#N)c2)nc1)c1nc2cc(C(F)(F)F)cnc2[nH]1 [Ex. 40, (S)-3-cyano-N-(5-(methoxy(6-(trifluoromethyl)-3H-imidazo[4,5-b]pyridin-2-yl)methyl)pyridin-2-yl)benzamide] |
| 0.00611 µM | 1.69 µM | N#Cc1cccc(C(=O)Nc2ccc(C3(c4nc5ccccc5[nH]4)CCC3)nc2)c1 [Ex. 46, N-(6-(1-(1H-benzo[d]imidazol-2-yl)cyclobutyl)pyridin-3-yl)-3-cyanobenzamide] |
| 0.0997 µM | – | O=C(Nc1ccc(C2(c3nc4c([nH]3)CCCC4)CCC2)cn1)c1cccc(Cl)c1 [Ex. 48, 3-Chloro-N-(5-(1-(4,5,6,7-tetrahydro-1H-benzo[d]imidazol-2-yl)cyclobutyl)pyridin-2-yl)benzamide] |
| 3.86 µM | – | N#Cc1cccc(C(=O)Nc2ccc([C@H](O)c3nc4cc(C(F)(F)F)cnc4[nH]3)cn2)c1 [Ex. 43, (S)-3-cyano-N-(5-(hydroxy(6-(trifluoromethyl)-3H-imidazo[4,5-b]pyridin-2-yl)methyl)pyridin-2-yl)benzamide] |
| 10 µM | – | N#Cc1cccc(C(=O)Nc2ccc(C3(c4nc5cccc(C(=O)O)c5[nH]4)CCC3)cn2)c1 [Ex. 36, 2-(1-(6-(3-Cyanobenzamido)pyridin-3-yl)cyclobutyl)-1H-benzo[d]imidazole-7-carboxylic acid] |
| 6.22 µM | – | N#Cc1cccc(C(=O)Nc2ccc([C@@H](O)c3nc4cc(C(F)(F)F)cnc4[nH]3)cn2)c1 [Ex. 44, (R)-3-cyano-N-(5-(hydroxy(6-(trifluoromethyl)-3H-imidazo[4,5-b]pyridin-2-yl)methyl)pyridin-2-yl)benzamide] |
| 0.121 µM | – | COC(c1ccc(NC(=O)c2cccc(C#N)c2)nc1)c1nc2cc(C(F)(F)F)cnc2[nH]1 (centres unmarked) [Ex. 39, 3-Cyano-N-(5-(methoxy(6-(trifluoromethyl)-3H-imidazo[4,5-b]pyridin-2-yl)methyl)pyridin-2-yl)benzamide] |
| 0.383 µM | – | COC(=O)c1cccc2nc(C3(c4ccc(NC(=O)c5cccc(C#N)c5)nc4)CCC3)[nH]c12 [Ex. 35, Methyl 2-(1-(6-(3-cyanobenzamido)pyridin-3-yl)cyclobutyl)-1H-benzo[d]imidazole-7-carboxylate] |
